Each structure is given as a SMILES string.

Assay [1] relates to Zucker Diabetic Fatty (ZDF) rat. The assay can be described thus: Meal load test in type 2 diabetic model rats (postprandial blood glucose). The format is in vivo. More on the design: unit not given here. The conditions noted are these: ZDF rats fasted overnight, oral 10 mg/kg in 5% Arabia gum, blood glucose one hour after meal loading (50 kcal/kg). The procedure: Effects on Type 2 Diabetes: Meal Load Test
To evaluate whether a cyanotriazol compound improves diabetes or not, especially related to postprandial blood glucose, meal load test was performed using one of type 2 diabetic model rats, the Zucker Diabetic Fatty (ZDF) rat (Charles river, Japan). About 24 animals fasted overnight (17 h) were taken blood samples from the tail veins, and measured blood glucose levels (Pre BG) and body weights (BW). Proper animals were selected and divided into […] (n=6) based on the Pre BG and BW using SAS Statistical Analysis System (SAS institute Japan Ltd. Release 9.1). The compounds to be tested (10 or 30 mg/kg body weight in 5% Arabia gum) or Arabia gum solution only (vehicle group) were orally administrated via gavage two hours prior to or just before meal loading (50 kcal/kg body weight). The meal suspension was prepared by mixing purified AIN-93G (Norsan Corp, Yokohama, Japan) and distilled water (2:3, w/v). One-hour after meal loading, blood glucose (BG1h) of each animal was measured. Effectiveness of each compound was shown by ? BG1h (BG1h difference between compound group and vehicle group). Although a set of 24 animals was used several times (from 13 weeks to 21 weeks of age), at least a one-week interval was placed from one to another test.

Assay [2] relates to NaCT-CHO (CHO cells stably expressing human NaCT). The assay is described as follows: Assay of the citric acid cycle activation ([1,5-14C]-citric acid, diffusion of [14C]-CO2). The class given is cell-based. The conditions noted are these: 1 hour incubation at 37° C. with [1,5-14C]-citric acid. In outline:
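NaCT-CHO cells (pME-CHO empty-vector cells for non-specific counts) were incubated 1 h at 37 °C in Na+-containing HEPES-Tris pH 7.4 with compound plus an equal volume of 0.4 mM [1,5-14C]-citric acid solution. Residual cell radioactivity was counted, [14C]-CO2 diffusion was taken as (Total−R)/(Total−NS)×100%, and EC50 was derived by regression.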

Broadly, the EC50 is the midpoint of the concentration-response curve. With `N#Cc1[nH]nnc1-c1cccc(/C=C/c2cncc(C(F)(F)F)c2)c1` [Example 49, 5-{3-[(E)-2-(5-trifluoromethyl-pyridin-3-yl)-vinyl]-phenyl}-3H-[1,2,3]triazole-4-carbonitrile], in assay [1], the “BG1h (BG1h difference between compound group and vehicle group)” value is recorded as −78.7. The molecule also displayed an EC50 in assay [2] of 480 nM.

Consider `N#Cc1[nH]nnc1-c1cccc(/C=C/c2cc(C(F)(F)F)ccn2)c1` [Example 50, 5-{3-[(E)-2-(4-trifluoromethyl-pyridin-2-yl)-vinyl]-phenyl}-3H-[1,2,3]triazole-4-carbonitrile], for which the “BG1h (BG1h difference between compound group and vehicle group)” value in assay [1] was −120.0. Also, in assay [2], the EC50 is 440 nM.

As to `N#Cc1[nH]nnc1-c1cc(/C=C/c2cccc(C(F)(F)F)n2)cc(C(F)(F)F)c1` [Example 51, 5-{3-trifluoromethyl-5-[(E)-2-(6-trifluoromethyl-pyridin-2-yl)-vinyl]-phenyl}-3H-[1,2,3]triazole-4-carbonitrile], the “BG1h (BG1h difference between compound group and vehicle group)” value in assay [1] was −79.0. The molecule also had an EC50 in assay [2] of 760 nM.

In the case of `N#Cc1[nH]nnc1-c1cccc(/C=C/c2nccc(C(F)(F)F)n2)c1` [Example 52, 5-{3-[(E)-2-(4-trifluoromethyl-pyrimidin-2-yl)-vinyl]-phenyl}-3H-[1,2,3]triazole-4-carbonitrile], the “BG1h (BG1h difference between compound group and vehicle group)” value in assay [1] is listed as −120.4. The response in assay [2] was half-maximal at 580 nM (EC50).

Turning to `N#Cc1[nH]nnc1-c1cccc(COc2cc(C(F)(F)F)ccn2)c1` [Example 55, 5-[3-(4-trifluoromethyl-pyridin-2-yloxymethyl)-phenyl]-3H-[1,2,3]triazole-4-carbonitrile], the “BG1h (BG1h difference between compound group and vehicle group)” value in assay [1] is −110.2. The molecule further showed an EC50 in assay [2] of 650 nM.

Regarding `N#Cc1[nH]nnc1-c1cccc(OCc2cc(C(F)(F)F)ccc2C(F)(F)F)c1` [Example 60, 5-[3-(2,5-bis-trifluoromethyl-benzyloxy)-phenyl]-3H-[1,2,3]triazole-4-carbonitrile], in assay [1], the “BG1h (BG1h difference between compound group and vehicle group)” value is given as −132.0. For the same molecule, the half-maximal effective concentration (EC50) in assay [2] was determined as 300 nM.

For `N#Cc1[nH]nnc1-c1ccc(-c2nccc(C(F)(F)F)n2)cc1` [Example 70, 5-[4-(4-trifluoromethyl-pyrimidin-2-yl)-phenyl]-3H-[1,2,3]triazole-4-carbonitrile], in assay [1], the “BG1h (BG1h difference between compound group and vehicle group)” value is −137.2. Moreover, in assay [2], the EC50 is 510 nM.

Consider `N#Cc1[nH]nnc1-c1csc(-c2ccc(Cl)cc2)n1` [Example 75, 5-[2-(4-chloro-phenyl)-thiazol-4-yl]-3H-[1,2,3]triazole-4-carbonitrile], for which, in assay [1], the “BG1h (BG1h difference between compound group and vehicle group)” value was −83.2. The EC50 in assay [2] came to 880 nM.

Consider `N#Cc1[nH]nnc1-c1csc(-c2ccc(Cl)c(Cl)c2)n1` [Example 77, 5-[2-(3,4-dichloro-phenyl)-thiazol-4-yl]-3H-[1,2,3]triazole-4-carbonitrile], for which the “BG1h (BG1h difference between compound group and vehicle group)” value in assay [1] was −61.3. Further, in assay [2], the midpoint of the response, the EC50, lay at 910 nM.

For `N#Cc1[nH]nnc1-c1csc(-c2cccc(C(F)(F)F)c2)n1` [Example 78, 5-[2-(3-trifluoromethyl-phenyl)-thiazol-4-yl]-3H-[1,2,3]triazole-4-carbonitrile], the “BG1h (BG1h difference between compound group and vehicle group)” value in assay [1] is recorded as −93.7. Besides, the EC50 in assay [2] came to 510 nM.

Consider `N#Cc1[nH]nnc1-c1csc(-c2cccc(OC(F)(F)F)c2)n1` [Example 79, 5-[2-(3-trifluoromethoxy-phenyl)-thiazol-4-yl]-3H-[1,2,3]triazole-4-carbonitrile], for which the “BG1h (BG1h difference between compound group and vehicle group)” value in assay [1] is −51.0. Further, the EC50 in assay [2] is 620 nM.

Turning to `Cc1sc(-c2ccc(F)c(Cl)c2)nc1-c1nn[nH]c1C#N` [Example 90, 5-[2-(3-chloro-4-fluoro-phenyl)-5-methyl-thiazol-4-yl]-3H-[1,2,3]triazole-4-carbonitrile], the “BG1h (BG1h difference between compound group and vehicle group)” value in assay [1] is on record as −119.0. In addition, a half-maximal response in assay [2] (EC50) required 560 nM.

For the molecule `Cc1sc(-c2ccc(C(F)(F)F)cc2)nc1-c1nn[nH]c1C#N` [Example 92, 5-[5-methyl-2-(4-trifluoromethyl-phenyl)-thiazol-4-yl]-3H-[1,2,3]triazole-4-carbonitrile], the “BG1h (BG1h difference between compound group and vehicle group)” value in assay [1] was −69.2. Moreover, in assay [2], the EC50 came out at 820 nM.

With `CCc1sc(-c2ccc(Cl)cc2)nc1-c1nn[nH]c1C#N` [Example 98, 5-[2-(4-chloro-phenyl)-5-ethyl-thiazol-4-yl]-3H-[1,2,3]triazole-4-carbonitrile], the “BG1h (BG1h difference between compound group and vehicle group)” value in assay [1] was −87.9. In assay [2], this molecule yielded a concentration giving a half-maximal response (EC50) of 590 nM.

With `CCc1sc(-c2ccc(C(F)(F)F)cn2)nc1-c1nn[nH]c1C#N` [Example 100], the “BG1h (BG1h difference between compound group and vehicle group)” value in assay [1] is listed as −100.5. The same molecule displayed an EC50 in assay [2] of 540 nM.

As to `N#Cc1[nH]nnc1-c1nc(-c2cccc(C(F)(F)F)c2)sc1Cl` [Example 108, 5-[5-chloro-2-(3-trifluoromethyl-phenyl-phenyl)-thiazol-4-yl]-3H-[1,2,3]triazole-4-carbonitrile], the “BG1h (BG1h difference between compound group and vehicle group)” value in assay [1] was −101.9. In addition, the midpoint of the response in assay [2], the EC50, lay at 420 nM.

As to `N#Cc1[nH]nnc1-c1nc(-c2cccc(C(F)(F)F)c2)oc1C1CC1` [Example 120, 5-[5-cyclopropyl-2-(3-trifluoromethyl-phenyl)-oxazol-4-yl]-3H-[1,2,3]triazole-4-carbonitrile], in assay [1], the “BG1h (BG1h difference between compound group and vehicle group)” value is given as −114.3. The molecule further showed an EC50 in assay [2] of 890 nM.

Turning to `CC(C)c1oc(-c2ccc(Cl)cc2)nc1-c1nn[nH]c1C#N` [Example 122, 5-[2-(4-chloro-phenyl)-5-isopropyl-oxazol-4-yl]-3H-[1,2,3]triazole-4-carbonitrile], the “BG1h (BG1h difference between compound group and vehicle group)” value in assay [1] is listed as −75.5. Besides, the EC50 in assay [2] was 510 nM.

For the molecule `N#Cc1[nH]nnc1-c1ccc(/C=C/c2cccc(C(F)(F)F)c2)o1` [Example 137, 5-{5-[(E)-2-(3-trifluoromethyl-phenyl)-vinyl]-furan-2-yl}-3H-[1,2,3]triazole-4-carbonitrile], in assay [1], the “BG1h (BG1h difference between compound group and vehicle group)” value is −162.6. Further, the concentration for a half-maximal effect (EC50) in assay [2] came out at 570 nM.

Take `N#Cc1[nH]nnc1-c1ccc2ccn(CCCC(F)(F)F)c2c1` [Example 146]: the “BG1h (BG1h difference between compound group and vehicle group)” value in assay [1] was −94.9. For the same molecule, in assay [2], the EC50 turned out to be 410 nM.

For the molecule `N#Cc1[nH]nnc1-c1cc2ccc(-c3ccc(F)cc3)cc2o1` [Example 147, 5-[6-(4-fluoro-phenyl)-benzofuran-2-yl]-3H-[1,2,3]triazole-4-carbonitrile], the “BG1h (BG1h difference between compound group and vehicle group)” value in assay [1] is recorded as −80.5. This molecule also had a 50% effective concentration (EC50) in assay [2] of 1660 nM.

Turning to `N#Cc1[nH]nnc1-c1cccc(-c2cc(F)cc(C(F)(F)F)c2)c1` [Example 220, 5-(5′-fluoro-3′-trifluoromethyl-biphenyl-3-yl)-3H-[1,2,3]triazole-4-carbonitrile], the “BG1h (BG1h difference between compound group and vehicle group)” value in assay [1] is −85.6. Also, a half-maximal effect in assay [2] (EC50) was put at 350 nM.

As for `N#Cc1[nH]nnc1-c1cc(Cl)cc(-c2cc(C(F)(F)F)cc(C(F)(F)F)c2)c1` [Example 275, 5-(5-chloro-3′,5′-bis-trifluoromethyl-biphenyl-3-yl)-3H-[1,2,3]triazole-4-carbonitrile], in assay [1], the “BG1h (BG1h difference between compound group and vehicle group)” value is −83.3. Moreover, a half-maximal response in assay [2] (EC50) required 1040 nM.

Values taken from US10626095B2, “Cyanotriazole compounds” (OTSUKA PHARMACEUTICAL CO., LTD., priority 2013, dated 2020).
